Reference: the NIST ThermoML archive (doi:10.1016/j.jct.2013.11.027)

Experiments:
[1] = xn = mol fraction of the nth substance listed; conditions: 101 kPa, Liquid; for speed of sound: Sing-around technique in a fixed-path interferometer; for mass density: Vibrating tube method
[2] = refractive index (Na D-line) (dimensionless); xn = mol fraction of the nth substance listed; conditions: 101 kPa, Liquid, Standard Abbe refractometry

CCCCCCn1cc[n+](C)c1.F[B-](F)(F)F [1-hexyl-3-methylimidazolium tetrafluoroborate] + C1COCCO1
Conditions | mass density, 298.15 K [kg/m3] | mass density, 308.15 K [kg/m3] | mass density, 318.15 K [kg/m3] | refractive index, 298.15 K | refractive index, 308.15 K | refractive index, 318.15 K | speed of sound, 298.15 K [m/s] | speed of sound, 308.15 K [m/s] | speed of sound, 318.15 K [m/s]
[1], x1 = 0.0956 | 1060.24 | 1050.11 | 1040.21 | – | – | – | 1373.3 | 1332.3 | 1291
[1], x1 = 0.2039 | 1084.24 | 1074.91 | 1065.52 | – | – | – | 1403 | 1364.1 | 1324.8
[1], x1 = 0.2945 | 1098.98 | 1089.94 | 1081.15 | – | – | – | 1422 | 1384.1 | 1346.8
[1], x1 = 0.368 | 1107.75 | 1099.02 | 1090.42 | – | – | – | 1434 | 1398.1 | 1362.7
[1], x1 = 0.4876 | 1119.03 | 1110.69 | 1102.5 | – | – | – | 1450.5 | 1417.6 | 1384.3
[1], x1 = 0.5831 | 1125.92 | 1118.09 | 1110.2 | – | – | – | 1461 | 1430.1 | 1398.7
[1], x1 = 0.6816 | 1131.92 | 1124.09 | 1116.5 | – | – | – | 1470.5 | 1441.5 | 1412.2
[1], x1 = 0.7695 | 1136.19 | 1128.65 | 1121.26 | – | – | – | 1478.1 | 1450.5 | 1423.2
[1], x1 = 0.8594 | 1140.02 | 1132.69 | 1125.9 | – | – | – | 1485.9 | 1459.7 | 1433.3
[1], x1 = 1 | 1145.11 | 1137.71 | 1130.49 | – | – | – | 1496.7 | 1472 | 1447.7
[2], x1 = 0.0956 | – | – | – | 1.4241 | 1.42009 | 1.41587 | – | – | –
[2], x1 = 0.2039 | – | – | – | 1.42717 | 1.42329 | 1.41958 | – | – | –
[2], x1 = 0.2945 | – | – | – | 1.42874 | 1.42525 | 1.42174 | – | – | –
[2], x1 = 0.368 | – | – | – | 1.42944 | 1.42625 | 1.42294 | – | – | –
[2], x1 = 0.4876 | – | – | – | 1.43034 | 1.42727 | 1.42429 | – | – | –
[2], x1 = 0.5831 | – | – | – | 1.43075 | 1.42802 | 1.42519 | – | – | –
[2], x1 = 0.6816 | – | – | – | 1.43106 | 1.42839 | 1.42546 | – | – | –
[2], x1 = 0.7695 | – | – | – | 1.43149 | 1.42861 | 1.42574 | – | – | –
[2], x1 = 0.8594 | – | – | – | 1.43152 | 1.42868 | 1.42604 | – | – | –
[2], x1 = 1 | – | – | – | 1.43167 | 1.4289 | 1.42612 | – | – | –

CCCCCCCC[n+]1ccn(C)c1.F[B-](F)(F)F [1-methyl-3-octylimidazolium tetrafluoroborate] + C1COCCO1
Conditions | mass density, 298.15 K [kg/m3] | mass density, 308.15 K [kg/m3] | mass density, 318.15 K [kg/m3] | refractive index, 298.15 K | refractive index, 308.15 K | refractive index, 318.15 K | speed of sound, 298.15 K [m/s] | speed of sound, 308.15 K [m/s] | speed of sound, 318.15 K [m/s]
[1], x1 = 0.0859 | 1049.95 | 1040.08 | 1030.18 | – | – | – | 1380.8 | 1341.1 | 1301.8
[1], x1 = 0.192 | 1064.93 | 1055.92 | 1047.49 | – | – | – | 1414.2 | 1378.1 | 1343.1
[1], x1 = 0.2914 | 1074.44 | 1066.14 | 1057.87 | – | – | – | 1436.8 | 1403.6 | 1370.9
[1], x1 = 0.3963 | 1080.96 | 1073.08 | 1065.23 | – | – | – | 1451.6 | 1420.6 | 1390
[1], x1 = 0.4955 | 1085.46 | 1077.85 | 1070.11 | – | – | – | 1460.4 | 1430.9 | 1401.8
[1], x1 = 0.5947 | 1088.93 | 1081.57 | 1074.25 | – | – | – | 1466.5 | 1438 | 1410.1
[1], x1 = 0.69 | 1091.4 | 1084.18 | 1076.98 | – | – | – | 1469 | 1440.8 | 1414.8
[1], x1 = 0.7938 | 1093.66 | 1086.61 | 1079.53 | – | – | – | 1475.1 | 1447.9 | 1421.7
[1], x1 = 0.8893 | 1095.2 | 1088.29 | 1081.42 | – | – | – | 1477.8 | 1450.9 | 1425.1
[1], x1 = 1 | 1097.61 | 1090.9 | 1084.17 | – | – | – | 1481.1 | 1453.9 | 1428.2
[2], x1 = 0.0859 | – | – | – | 1.42308 | 1.41854 | 1.41465 | – | – | –
[2], x1 = 0.192 | – | – | – | 1.42601 | 1.42173 | 1.41833 | – | – | –
[2], x1 = 0.2914 | – | – | – | 1.42812 | 1.42412 | 1.42107 | – | – | –
[2], x1 = 0.3963 | – | – | – | 1.42935 | 1.42549 | 1.42264 | – | – | –
[2], x1 = 0.4955 | – | – | – | 1.43039 | 1.42664 | 1.42387 | – | – | –
[2], x1 = 0.5947 | – | – | – | 1.43124 | 1.42746 | 1.42483 | – | – | –
[2], x1 = 0.69 | – | – | – | 1.43181 | 1.42809 | 1.42548 | – | – | –
[2], x1 = 0.7938 | – | – | – | 1.43221 | 1.42865 | 1.42605 | – | – | –
[2], x1 = 0.8893 | – | – | – | 1.43262 | 1.42907 | 1.42628 | – | – | –
[2], x1 = 1 | – | – | – | 1.43296 | 1.42939 | 1.42684 | – | – | –
